Assay results reported in patent US4758558A, “N-(substituted)-[7-(2-cyanoacetamido)cephalosporanic]amide derivatives having antibiotic utility” (priority 1982, dated 1988).

What was measured:
Escherichia coli = assay: Effect on intestinal bacteria: number of Escherichia coli in feces; assay type: in vivo, ICR mice; details: after oral administration for 2 days, 500 mg/kg/day, female ICR mice; before: 6.4
Protocol: (b) Effect on the intestinal bacterial colonies:
[…] Each portion of the two kinds of the feces was cultured at 25° C. or 37° C. in a variety of culture medium for one to five days to see the state of Escherichia coli, Pseudomonas aeruginosa, a Streptococcus species, a Lactobacillus species, Lactobacillus bifidus and a Bacteroides species in the culture medium.
(§1) Effects of the present compound on intestinal bacteria
Each of the two fecal […] by weight of an anaerobic diluent (a phosphoric acid buffer solution) and was ground in a mortar, and 0.1 ml of the thus ground material was smeared on each of the following culture media for the following bacteria, and the thus inoculated culture media were incubated under the following conditions. Thereafter, the number of the following bacteria in each of the thus cultured media was determined.

Pseudomonas aeruginosa = assay: Effect on intestinal bacteria: number of Pseudomonas aeruginosa in feces; assay type: in vivo, ICR mice; details: mouse, in vivo, po, 500 mg/kg/day
Protocol: as §1
(§2) Each of the present compounds respectively produced in Examples 1 to 18 was orally administered continuously for 2 days at a daily dose rate of 500 mg/kg body weight to each of five female ICR mice of each group after 6 weeks of their birth.
(§3) Each of the two fecal specimens respectively collected from each mouse before and after one day of the administration was diluted with 100 times by weight of an anaerobic diluent (a phosphoric acid buffer solution) and was ground in a mortar, and 0.1 ml of the thus ground material was smeared on each of the following culture media for the following bacteria, and the thus inoculated culture media were incubated under the following conditions. Thereafter, the number of the following bacteria in each of the thus cultured media was determined.
NAC agar 37° C., one day, […]

[1] = tested on: Staphylococcus aureus IAM 1011; assay: Treatment of experimental infectious disease in mouse due to Staphylococcus aureus; assay type: in vivo, ddY SPE mice; details: oral, two times just after and 4 hours after inoculation; 2.3×10^8 cells i.p.
Source text: (§4) (e) Effectiveness in treating experimental infectious disease due to bacteria:
(§5) (Refer to Example 22 for the details of the test.) As the result, while all the twenty mice artificially infected with each of the two bacterial species and not-treated with any of the present compound died on the second day of inoculation, more than 40% of the twenty mice artificially infected with each of the two bacterial species and administered with each of the three present compounds were alive even after 7 days of inoculation.
(§6) Effectiveness of the present compound in treatment of an experimental infectious disease in mouse
(2) Disease due to infection of Staphylococcus aureus
(§7) Each mouse of the two groups (20 animals/group) of ddY SPE mice was inoculated with 2.3×10^8 cells of Staphylococcus aureus IAM 1011 intraperitoneally, and then, each mouse of the one of the two groups was administered orally with one of the present compounds, namely the compound produced in Example 5, 10 or 13, two times just after and 4 hours after the inoculation, while the 20 mice of the other group were not administered.

a species of Bacteroides = assay: Effect on intestinal bacteria: number of a sp. of Bacteroides in feces; assay type: in vivo, ICR mice; details: mouse, in vivo, po, 500 mg/kg/day
Protocol: (§8) (b) Effect on the intestinal bacterial colonies: […]
as §1, §2, §3
a species of Bacteroides
NBGT agar 37° C., 5 days, […]

[2] = tested on: a species of Lactobacillus; assay: Effect on intestinal bacteria: number of a sp. of Lactobacillus in feces; assay type: in vivo, ICR mice; details: mouse, in vivo, po, 500 mg/kg/day
Protocol: as §8, §1, §2, §3
a species of Lactobacillus
LBS agar 37° C., 5 days, […]

[3] = tested on: a species of Streptococcus; assay: Effect on intestinal bacteria: number of a sp. of Streptococcus in feces; assay type: in vivo, ICR mice; details: mouse, in vivo, po, 500 mg/kg/day
Protocol: as §8, §1, §2, §3
a species of Streptococcus
TATAC agar 37° C., one day, […]

[4] = tested on: Staphylococcus aureus IAM 1011; assay: Antibacterial activity in vitro (MIC) against Staphylococcus aureus; assay type: cell-based; details: IAM1011, Mueller-Hinton agar, 18 to 24 hours, 37° C., read-out: MIC (minimum growth inhibiting concentration) against Staphylococcus aureus
Protocol: (§9) (c) Anti-bacterial activity (in vitro):
(§10) Minimum concentration of the present compound inhibiting the growth of the following bacteria was determined according to the standard procedures of Japan Society of Chemotherapy:
Staphylococcus aureus IAM 1011
(§11) Determination of the antibacterial activity of the present compound produced in Examples 1 to 18, respectively was carried out according to the standard procedures of Japan Society of Chemotherapy for finding MIC (the minimum concentration of a specimen to inhibit the growth of a species of bacteria).
(§12) A series of diluted solutions of each of the present compound were mixed with 9 times by weight of Mueller-Hinton's culture medium as the culture medium for determining the sensitivity of a bacterial species, and flat agar culture plates were prepared by using the thus obtained mixture.
(§13) Each of the liquids respectively containing one of the bacterial species shown in Table 2 was smeared onto each of the thus prepared flat agar culture plates with a platinum loop, in length of about 2 cm, and the thus treated plates were incubated for 18 to 24 hours at 37° C. Thereafter, by observing the growth state of each bacterial species on the cultured plates, the minimum concentration of each compound completely inhibiting the growth of each bacterial species was found.

[5] = tested on: Escherichia coli IFO 12734; assay: Treatment of experimental infectious disease in mouse due to Escherichia coli; assay type: in vivo, ddY SPE mice; details: oral, two times just after and 4 hours after inoculation; 1.4×10^8 cells i.p.
Source text: as §4, §5, §6
(1) Disease due to infection of Escherichia coli
as §7, with “1.4×10^8” for “2.3×10^8”, “Escherichia coli IFO 12734” for “Staphylococcus aureus IAM 1011”

Lactobacillus bifidus = assay: Effect on intestinal bacteria: number of Lactobacillus bifidus in feces; assay type: in vivo, ICR mice; details: mouse, in vivo, po, 500 mg/kg/day
Protocol: as §8, §1, §2, §3
BS agar 37° C., 5 days, […]

[6] = tested on: Escherichia coli IFO 12734; assay: Antibacterial activity in vitro (MIC) against Escherichia coli; assay type: cell-based; details: IFO12734, Mueller-Hinton agar, 18 to 24 hours, 37° C., read-out: MIC (minimum growth inhibiting concentration) against Escherichia coli
Protocol: as §9, §10
Escherichia coli IFO 12734 and
as §11, §12, §13

SMILES | Number of Escherichia coli after the administration (Escherichia coli) | Number of Pseudomonas aeruginosa after the administration (Pseudomonas aeruginosa) | mice alive on the 7th day of inoculation (Staphylococcus aureus infection) [1] | Number of a sp. of Bacterioides after the administration (a species of Bacteroides) | Number of a sp. of Lactobacillus after the administration [2] | Number of a sp. of Streptococcus after the administration [3] | MIC [4] [µg/mL] | mice alive on the 7th day of inoculation (Escherichia coli infection) [5] | Number of Lactobacillus bifidus after the administration (Lactobacillus bifidus) | MIC [6] [µg/mL]
COC(=O)CNC(=O)c1ccc(NC(=O)C2=C(C)CSC3C(NC(=O)[C@H](N)c4ccccc4)C(=O)N23)cc1 (stereo partly drawn) [Example 5, N-(4-carbomethoxymethylcarbamoylphenyl)-[7-(D-alpha-aminophenylacetamido)desacetoxycephalosporanic]amide] | 6.5 Log10 (number of bacteria/g feces) | < 3.0 Log10 (number of bacteria/g feces) | more than 65% | 8.4 Log10 (number of bacteria/g feces) | 8.9 Log10 (number of bacteria/g feces) | 6.7 Log10 (number of bacteria/g feces) | ≥ 100 | more than 60% | 8.4 Log10 (number of bacteria/g feces) | ≥ 100
CC(=O)OCC1=C(C(=O)Nc2ccc(C)cc2)N2C(=O)C(NC(=O)CC#N)C2SC1 (stereo not drawn) [Example 10, N-(4-methylphenyl)-[7-(2-cyanoacetamido)caphalosporanic]amide] | 6.8 Log10 (number of bacteria/g feces) | < 3.0 Log10 (number of bacteria/g feces) | more than 85% | 8.9 Log10 (number of bacteria/g feces) | 9.0 Log10 (number of bacteria/g feces) | 6.8 Log10 (number of bacteria/g feces) | ≥ 100 | more than 80% | 8.2 Log10 (number of bacteria/g feces) | ≥ 100
COC(=O)c1ccc(NC(=O)C2=C(CSc3nnc(C)s3)CSC3C(NC(=O)Cn4cnnn4)C(=O)N23)cc1 (stereo not drawn) [Example 13, N-(4-carbomethoxyphenyl)-{7-(1-1H-tetrazolylacetamido)-3-[2-(5-methyl-1,3,4-thiadiazolyl)thiomethyl]-3-cephem-4-carboxylic}amide] | 6.4 Log10 (number of bacteria/g feces) | < 3.0 Log10 (number of bacteria/g feces) | more than 60% | 8.7 Log10 (number of bacteria/g feces) | 9.0 Log10 (number of bacteria/g feces) | 6.6 Log10 (number of bacteria/g feces) | ≥ 12.5 | more than 80% | 8.4 Log10 (number of bacteria/g feces) | ≥ 100
